Source: patent US4211764A, “Gastric secretion stimulation with 2-amino-5-(2-aminoethyl)-1,3,4-thiadiozole” (priority 1978, dated 1980)

Assays:
[1] = biological target: T1, H2 -receptors (Cavia porcellus, UniProt P47747); test: Heart rate of isolated auricles; conditions: isolated guinea pig auricles; read-out: pD2 value, H2 -receptors (heart rate) (converted)
T1 construct: from tissue; host or cells: isolated guinea pig auricles (atria)
Procedure: Changes in the heart rate were measured, dose-response curves were plotted, and pD2 values were calculated.

[2] = Acute toxicity, rats; conditions: rat, in vivo, ip; male rats, 200-250 g, i/p
Description: The results of the tests are generalized in Table 1.

[3] = system: male rabbits; conditions: rabbit, in vivo
Procedure: | D. Allergic Action | (Arthus-Sakharov Phenomenon) | Daily injections to male rabbits | weighing 3.0 kg, during 6 to 7 days: | test group, hypodermic injections of | 0.1 ml of 1% solution | control group, injections of 0.1 ml | of normal horse serum

[4] = system: male dogs; test: Chronic toxicity, dogs per os; type: in vivo; conditions: for Bilirubin content / Glutamic-alanine transaminase content: 200 mg per os daily, Test
Procedure: Three male dogs weighing 22 to 25 kg
1. Administration per os, 200 mg
(in gelatin capsules), admini-
stration performed once a day
during 10 days, one animal being

[5] = system: gastric secretion of patients; test: Clinical comparison of thidazine with simple histamine test; type: in vivo, human; conditions: 20 patients; thidazine 1.5 mg/kg parenteral, histamine 0.01 mg/kg; >0.05
Description: Special attention was paid to side effects and the reproductibility of the secretory response after repeated administrations of the drug.

[6] = system: arterial pressure; test: Arterial pressure in rabbits; conditions: intravenous, thidazine 0.1 mg/kg, equimolar doses of histamine and histalog
Procedure: In a series of experiments of 18 rabbits weighing 2.5 to 3.5 kg, each having the common carotid artery in a cutaneous flap, the preparations were injected intravenously.

T1 sequence (P47747 whole entry): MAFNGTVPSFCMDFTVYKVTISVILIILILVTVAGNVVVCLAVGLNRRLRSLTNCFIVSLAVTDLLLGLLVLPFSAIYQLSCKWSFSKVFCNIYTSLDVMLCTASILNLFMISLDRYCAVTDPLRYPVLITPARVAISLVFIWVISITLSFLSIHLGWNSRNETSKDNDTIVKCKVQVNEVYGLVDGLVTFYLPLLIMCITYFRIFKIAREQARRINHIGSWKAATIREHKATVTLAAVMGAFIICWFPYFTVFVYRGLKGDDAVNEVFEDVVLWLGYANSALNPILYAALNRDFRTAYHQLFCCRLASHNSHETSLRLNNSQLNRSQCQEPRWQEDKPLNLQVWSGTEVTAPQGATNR

With `NCCc1nnc(N)s1` [Thidazine, 2-amino-5-(2-aminoethyl)-1,3,4-thiadiazole] as the molecule, how does the EC50 [1] read?
Its EC50 is 7.94 µM.

And the LD50 [2]?
Its LD50 is 1 mg/kg.

And the “Allergic Action (Arthus-Sakharov Phenomenon)” value [3]?
Its value is “Negative reaction”.

And the “Behavior, food reflexes” value ([4]; 200 mg per os daily 10 days)?
Its value is “No changes”.

What about the Bilirubin content ([4]; 5th day) of the same molecule?
Its Bilirubin content is 0.15 mg%.

And the Glutamic-alanine transaminase content ([4]; 5th day)?
Its Glutamic-alanine transaminase content is 30 units.

And the Bilirubin content ([4]; 10th day)?
The Bilirubin content was 0.15 mg%.

And the Glutamic-alanine transaminase content ([4]; 10th day)?
Its Glutamic-alanine transaminase content is 32 units.

What about the Bilirubin content ([4]; at beginning) of the same molecule?
Its Bilirubin content is 0.16 mg%.

What about the Glutamic-alanine transaminase content ([4]; beginning) of the same molecule?
Its Glutamic-alanine transaminase content is 30 units.

What about the “Histological Examination of Internal Organs” value ([4]; dog, in vivo) of the same molecule?
Its value is “No microscopic changes”.

And the “Urinalysis: volume, specific weight, protein, microscopy of urinary sediment” value ([4]; dog, in vivo)?
The value was “No significant changes”.

What about the “Free Acidity” value [5] of the same molecule?
The value was 77.0+20 units.

And the “HCl Output” value [5]?
Its value is 12.2 ± 0.7 milliequivalents per hour.

What about the “Peak HCl Output” value [5] of the same molecule?
Its value is 8.9+0.3 milliequivalents.

And the “Total Acidity” value [5]?
The value was 90.3+22 units.

What about the “reduction of arterial pressure” value [6] of the same molecule?
Its value is 12 mm of mercury.
